# Data reported in patent US20190142800A1, “SYNERGISTIC ANTIFUNGAL COMPOSITIONS AND METHODS THEREOF” (VYOME THERAPEUTICS LIMITED, priority 2016, published 2019).
# Tests used:
# [1] = system: Trichophyton rubrum (ATCC-28188); test: Checkerboard assay of fatty acid/ester with antifungals on Trichophyton rubrum (ATCC 28188); format: cell-based; parameters: key to FIC index: FIC index = sum of FICs; FIC = agent conc in well / agent MIC; conditions: for MIC: Trichophyton rubrum, ATCC28188, agent alone
# Description: (§1) The synergy is measured by determining the fractional inhibitory concentration (FIC) value of the combination. This experimental set up, called checkerboard method, allows measurement of a desired effect (inhibition of fungal growth in this case) at different combinations of various concentrations of the two agents (antifungal agent and fatty acid/ester). […] No agent is added to the penultimate column on the right and the bottom row. The final column on the right is used for growth control (only inoculum in broth) and sterility control (broth alone, no inoculum). […] FIC value for each agent in a particular well of the checkerboard layout was calculated by dividing the agent concentration in that well by the established MIC value of the agent against the test organism (Hsieh et al., Synergy assessed by checkerboard: A critical Analysis, Diagn. Microbiol. Infect Dis. (1993) 16:343-349). FIC values for both agents in a particular well were calculated in this way followed by determination of the FIC index (sum of the FICs of each drug in the concerned well). […] Agents Chemother. (2010) 54(2): 602-609].
# (§2) Using the checkerboard layout experimental setup described above (FIG. 1A), various medium-chain fatty acids were tested for their ability to potentiate the activity of a known antifungal agent. Concentrations above and below the MIC of each test agent were tested using serial dilution. The same procedure was expanded to test combinations of various medium-chain fatty acids C-1 to C-14 (such caprylic acid, undecylenic acid and lauric acid) and esters thereof, with antifungal agents from various classes including azoles, allylamines, benzylamines, zinc pyrithione and piroctone olamine against both susceptible and resistant Trichophyton spp. (filamentous fungus) and Candida spp. (yeast).
# (§3) Potentiation of the activity of antimycotic agents using ester derivatives of medium chain fatty acids was tested in a standard, well accepted in vitro assay system to check for synergy. This experimental set up, called checkerboard method, allows measurement of a desired effect (inhibition of fungal growth in this case) at different combinations of various concentrations of two agents. A chosen medium chain fatty acid (C-1 to C-14) or its ester derivative was tested for its ability to potentiate the activity of a known antifungal agent (various classes) using the checkerboard layout. Various concentrations above and below the MIC of each test agent were tested using serial dilution in Sabouraud dextrose broth. […] FIC value for a drug in a particular well of the checkerboard layout is calculated by dividing the drug concentration in that well by the established MIC value of the drug against the test organism (Hsieh et al., Synergy assessed by checkerboard: A critical Analysis, Diagn. Microbiol. Infect Dis. (1993) 16:343-349). FIC values for both test agents in a particular well are calculated in this way followed by determination of the FIC index (sum of the FICs of each drug in the concerned well).
# [2] = system: azole resistant C. albicans MTCC 227; test: Checkerboard assay on azole resistant C. albicans MTCC 227; format: cell-based, Candida albicans; conditions: for MIC: Candida albicans, MTCC227, agent alone
# Description: as §1, with “FIC” for “FIC value for each agent in a particular well of the checkerboard layout was calculated by dividing the agent concentration in that well by the established MIC value of the agent against the test organism (Hsieh et al., Synergy assessed by checkerboard: A critical Analysis, Diagn. Microbiol. Infect Dis. (1993) 16:343-349). FIC”, “Chemother.” for “Chemother. (2010) 54(2): 602-609].”
# as §2
# as §3, with “FIC” for “FIC value for a drug in a particular well of the checkerboard layout is calculated by dividing the drug concentration in that well by the established MIC value of the drug against the test organism (Hsieh et al., Synergy assessed by checkerboard: A critical Analysis, Diagn. Microbiol. Infect Dis. (1993) 16:343-349). FIC”
# [3] = Table 2, propylene glycol monocaprylate series
# [4] = Table 3, glyceryl monocaprylate series
# [5] = Table 4, undecylenic acid (C11) series
# [6] = Table 5, lauric acid (C12) series
# [7] = Table 6, propylene glycol monolaurate series
# [8] = agent's MIC in combination antifungal + caprylic acid (partner: other agent of same combination no.)
# [9] = agent's MIC in combination antifungal + glyceryl monocaprylate (partner: other agent of same combination no.)
# [10] = agent's MIC in combination antifungal + lauric acid (partner: other agent of same combination no.)
# [11] = agent's MIC in combination antifungal + propylene glycol monocaprylate (partner: other agent of same combination no.)
# [12] = agent's MIC in combination antifungal + propylene glycol monolaurate (partner: other agent of same combination no.)
# [13] = agent's MIC in combination antifungal + undecylenic acid (partner: other agent of same combination no.)
# [14] = antifungal in combination with caprylic acid
# [15] = antifungal in combination with glyceryl monocaprylate
# [16] = antifungal in combination with lauric acid
# [17] = antifungal in combination with propylene glycol monocaprylate
# [18] = antifungal in combination with propylene glycol monolaurate
# [19] = antifungal in combination with undecylenic acid
# [20] = combination antifungal + caprylic acid
# [21] = combination antifungal + glyceryl monocaprylate
# [22] = combination antifungal + lauric acid
# [23] = combination antifungal + propylene glycol monocaprylate
# [24] = combination antifungal + propylene glycol monolaurate
# [25] = combination antifungal + undecylenic acid
# [26] = Table 9, caprylic acid (C8) series
# [27] = Table 10, propylene glycol monocaprylate series
# [28] = Table 11, glyceryl monocaprylate series
# [29] = Table 12, undecylenic acid (C11) series
# [30] = Table 13, lauric acid (C12) series
# [31] = Table 14, propylene glycol monolaurate series
compound,measurement,setting,value
C=C1CCN([C@H](C)[C@](O)(Cn2cncn2)c2ccc(F)cc2F)CC1 [Efinaconazole],MIC,"[1]; Table 1, caprylic acid series",0.125 µg/mL
same,MIC,[1]; [3],0.125 µg/mL
same,MIC,[1]; [4],0.125 µg/mL
same,MIC,[1]; [5],0.03 µg/mL
same,MIC,[1]; [6],0.03 µg/mL
same,MIC,[1]; [7],0.03 µg/mL
same,Combination MIC,[1]; [8],0.0625 µg/mL
same,Combination MIC,[1]; [9],0.0625 µg/mL
same,Combination MIC,[1]; [10],0.015 µg/mL
same,Combination MIC,[1]; [11],0.007 µg/mL
same,Combination MIC,[1]; [12],0.008 µg/mL
same,Combination MIC,[1]; [13],0.015 µg/mL
same,FIC index,[1]; [14],0.625
same,Interaction,[1]; [14],Synergistic (Combinations that gave FIC indices less than 1 were designated “synergistic”)
same,FIC index,[1]; [15],0.625
same,Interaction,[1]; [15],Synergistic (Combinations that gave FIC indices less than 1 were designated “synergistic”)
same,FIC index,[1]; [16],0.75
same,Interaction,[1]; [16],Synergistic (Combinations that gave FIC indices less than 1 were designated “synergistic”)
same,FIC index,[1]; [17],0.556
same,Interaction,[1]; [17],Synergistic (Combinations that gave FIC indices less than 1 were designated “synergistic”)
same,FIC index,[1]; [18],0.76
same,Interaction,[1]; [18],Synergistic (Combinations that gave FIC indices less than 1 were designated “synergistic”)
same,FIC index,[1]; [19],0.74
same,Interaction,[1]; [19],Synergistic (Combinations that gave FIC indices less than 1 were designated “synergistic”)
same,FIC,[1]; [20],0.5
same,FIC,[1]; [21],0.5
same,FIC,[1]; [22],0.5
same,FIC,[1]; [23],0.056
same,FIC,[1]; [24],0.266
same,FIC,[1]; [25],0.5
same,MIC,[2]; [26],128 µg/mL
same,MIC,[2]; [27],128 µg/mL
same,MIC,[2]; [28],128 µg/mL
same,MIC,[2]; [29],128 µg/mL
same,MIC,[2]; [30],128 µg/mL
same,MIC,[2]; [31],128 µg/mL
same,Combination MIC,[2]; [8],0.5 µg/mL
same,Combination MIC,[2]; [9],1 µg/mL
same,Combination MIC,[2]; [10],0.5 µg/mL
same,Combination MIC,[2]; [11],4 µg/mL
same,Combination MIC,[2]; [12],0.5 µg/mL
same,Combination MIC,[2]; [13],4 µg/mL
same,FIC index,[2]; [14],0.3
same,Interaction,[2]; [14],Synergistic (Combinations that gave FIC indices less than 1 were designated “synergistic”)
same,FIC index,[2]; [15],0.257
same,Interaction,[2]; [15],Synergistic (Combinations that gave FIC indices less than 1 were designated “synergistic”)
same,FIC index,[2]; [16],0.128
same,Interaction,[2]; [16],Synergistic (Combinations that gave FIC indices less than 1 were designated “synergistic”)
same,FIC index,[2]; [17],0.281
same,Interaction,[2]; [17],Synergistic (Combinations that gave FIC indices less than 1 were designated “synergistic”)
same,FIC index,[2]; [18],0.018
same,Interaction,[2]; [18],Synergistic (Combinations that gave FIC indices less than 1 were designated “synergistic”)
same,FIC index,[2]; [19],0.093
same,Interaction,[2]; [19],Synergistic (Combinations that gave FIC indices less than 1 were designated “synergistic”)
same,FIC,[2]; [20],0.062
same,FIC,[2]; [21],0.007
same,FIC,[2]; [22],0.003
same,FIC,[2]; [23],0.031
same,FIC,[2]; [24],0.003
same,FIC,[2]; [25],0.031
CCC(C)n1ncn(-c2ccc(N3CCN(c4ccc(OCC5COC(Cn6cncn6)(c6ccc(Cl)cc6Cl)O5)cc4)CC3)cc2)c1=O (stereo not drawn) [Itraconazole],MIC,"[1]; Table 1, caprylic acid series",0.125 µg/mL
same,MIC,[1]; [3],0.125 µg/mL
same,MIC,[1]; [4],0.125 µg/mL
same,MIC,[1]; [5],0.125 µg/mL
same,MIC,[1]; [6],0.125 µg/mL
same,MIC,[1]; [7],0.125 µg/mL
same,Combination MIC,[1]; [8],0.0312 µg/mL
same,Combination MIC,[1]; [9],0.007 µg/mL
same,Combination MIC,[1]; [10],0.06 µg/mL
same,Combination MIC,[1]; [11],0.015 µg/mL
same,Combination MIC,[1]; [12],0.06 µg/mL
same,Combination MIC,[1]; [13],0.0312 µg/mL
same,FIC index,[1]; [14],0.5
same,Interaction,[1]; [14],Synergistic (Combinations that gave FIC indices less than 1 were designated “synergistic”)
same,FIC index,[1]; [15],0.562
same,Interaction,[1]; [15],Synergistic (Combinations that gave FIC indices less than 1 were designated “synergistic”)
same,FIC index,[1]; [16],0.75
same,Interaction,[1]; [16],Synergistic (Combinations that gave FIC indices less than 1 were designated “synergistic”)
same,FIC index,[1]; [17],0.625
same,Interaction,[1]; [17],Synergistic (Combinations that gave FIC indices less than 1 were designated “synergistic”)
same,FIC index,[1]; [18],0.6
same,Interaction,[1]; [18],Synergistic (Combinations that gave FIC indices less than 1 were designated “synergistic”)
same,FIC index,[1]; [19],0.75
same,Interaction,[1]; [19],Synergistic (Combinations that gave FIC indices less than 1 were designated “synergistic”)
same,FIC,[1]; [20],0.25
same,FIC,[1]; [21],0.0625
same,FIC,[1]; [22],0.5
same,FIC,[1]; [23],0.125
same,FIC,[1]; [24],0.48
same,FIC,[1]; [25],0.25
same,MIC,[2]; [26],32 µg/mL
same,MIC,[2]; [27],64 µg/mL
same,MIC,[2]; [28],32 µg/mL
same,MIC,[2]; [29],32 µg/mL
same,MIC,[2]; [30],32 µg/mL
same,MIC,[2]; [31],32 µg/mL
same,Combination MIC,[2]; [8],4 µg/mL
same,Combination MIC,[2]; [9],4 µg/mL
same,Combination MIC,[2]; [10],0.125 µg/mL
same,Combination MIC,[2]; [11],0.125 µg/mL
same,Combination MIC,[2]; [12],2 µg/mL
same,Combination MIC,[2]; [13],0.125 µg/mL
same,FIC index,[2]; [14],0.25
same,Interaction,[2]; [14],Synergistic (Combinations that gave FIC indices less than 1 were designated “synergistic”)
same,FIC index,[2]; [15],0.375
same,Interaction,[2]; [15],Synergistic (Combinations that gave FIC indices less than 1 were designated “synergistic”)
same,FIC index,[2]; [16],0.253
same,Interaction,[2]; [16],Synergistic (Combinations that gave FIC indices less than 1 were designated “synergistic”)
same,FIC index,[2]; [17],0.064
same,Interaction,[2]; [17],Synergistic (Combinations that gave FIC indices less than 1 were designated “synergistic”)
same,FIC index,[2]; [18],0.07
same,Interaction,[2]; [18],Synergistic (Combinations that gave FIC indices less than 1 were designated “synergistic”)
same,FIC index,[2]; [19],0.066
same,Interaction,[2]; [19],Synergistic (Combinations that gave FIC indices less than 1 were designated “synergistic”)
same,FIC,[2]; [20],0.125
same,FIC,[2]; [21],0.125
same,FIC,[2]; [22],0.003
same,FIC,[2]; [23],0.002
same,FIC,[2]; [24],0.0625
same,FIC,[2]; [25],0.003
